From US20120010075A1 (priority 2009, published 2012)
Like-named read-outs stand apart in the source and are kept apart here.

Key:
[1] = tested on: Leptosphaeria nodorum (LEPTNO); assay: In vitro fungitoxicity of hydrazones with and without copper towards Leptosphaeria nodorum (Example 26); assay type: cell-based; settings: 72 h at 25° C.; for inhibition of growth at 0.05 µg/mL: Parastagonospora nodorum, 72 h, read-out: LEPTNO % Inhn. Minus Copper Observed
Phytophthora infestans = assay type: in vivo, Phytophthora infestans on tomato; settings: applied 24 h before inoculation, assessed 7 days after inoculation
[2] = copper-minus medium, test compound Concn. 0.05 μg/mL
[3] = copper-plus medium (CuCl2 10 μM), test compound Concn. 0.05 μg/mL
[4] = hydrazone 50 ppm with 50 μM CuCl2.2H2O, tomato late blight
[5] = compound 0.05 μg/mL, copper-minus medium
[6] = compound 0.05 μg/mL, copper-plus medium (CuCl2.2H2O)
[7] = hydrazone 50 ppm + 50 μM CuCl2.2H2O, tomato

| Compound | inhibition of growth at 0.05 µg/mL [1, 2] | LEPTNO % Inhn. Plus Copper Observed [1, 3] | TLB % Control (Phytophthora infestans; [4]) | melting point | inhibition of growth at 0.05 µg/mL [1, 5] | LEPTNO % Inhn. Plus Copper Observed [1, 6] | TLB % Control (Phytophthora infestans; [7]) | LEPTNO % Inhn. Minus Copper Observed [1, 5] |
| --- | --- | --- | --- | --- | --- | --- | --- | --- |
| O=C(N/N=C/c1c(O)cccc1Cl)c1cccc(Cl)c1 [Example 402] | 0% | 95.2% | 100.0% | 250 to 253 °C |  |  |  |  |
| O=C(N/N=C/c1c(F)ccc(F)c1O)c1ccccc1 [Example 244] |  |  |  | 206 to 207 °C | 0% | 96.1% | 62.7% |  |
| COc1ccc(C(=O)N/N=C(\C)c2cc(Br)cc(Br)c2O)cc1 [Example 546] | 7.6% | 97.7% | 100.0% | 247 to 248 °C |  |  |  |  |
| O=C(N/N=C/c1cccc(C(F)(F)F)c1O)c1cccc(Cl)c1 [Example 347] | 13.8% | 98.4% | 97.0% | 185 to 187 °C |  |  |  |  |
| O=C(N/N=C/c1c(O)cccc1Cl)c1cccc([N+](=O)[O-])c1 [Example 404] | 0% | 94.9% | 97.0% | 269 to 270 °C |  |  |  |  |
| COc1ccc(/C(C)=N/NC(=O)c2ccc(Cl)cc2)c(O)c1OC [Example 557] | 13% | 95.7% | 90.0% | 230 to 235 °C |  |  |  |  |
| C/C(=N\NC(=O)c1ccc(Cl)cc1)c1cc(Cl)ccc1O [Example 510] | 6.2% | 95.5% | 56.0% | 248 to 252 °C |  |  |  |  |
| O=C(N/N=C/c1c(C(F)(F)F)ccc(Cl)c1O)c1ccc([N+](=O)[O-])cc1 [Example 454] | 12.4% | 100.0% | 100.0% | 305 to 307 °C |  |  |  |  |
| COc1cc(O)c(/C(C)=N/NC(=O)c2ccc(C)cc2)c(OC)c1 [Example 566] | 6.8% | 95.9% | 70.0% | 177 to 184 °C |  |  |  |  |
| Cc1cccc(C(=O)N/N=C/c2c(Cl)ccc(Cl)c2O)c1 [Example 365] | 13.8% | 95.6% | 95.0% | 214 to 216 °C |  |  |  |  |
| Cc1ccc(C(=O)N/N=C/c2c(O)cccc2Cl)c(O)c1 [Example 408] | 8.4% | 79.7% | 94.0% | 273 to 276 °C |  |  |  |  |
| O=C(N/N=C/c1cccc(Cl)c1O)c1ccc(F)cc1 [Example 426] | 34.8% | 97.3% | 98.0% | 194 to 198 °C |  |  |  |  |
| COc1ccc(/C(C)=N/NC(=O)c2ccc(C)cc2)c(O)c1 [Example 283] |  |  |  | 206 to 207 °C | 0% | 95.9% | 67.0% |  |
| O=C(N/N=C/c1cccc(C(F)(F)F)c1O)c1ccccc1C(F)(F)F [Example 353] | 0% | 94.8% | 81.0% | 169 to 171 °C |  |  |  |  |
| COc1ccc(C(=O)N/N=C(\C)c2cc(F)cc(F)c2O)cc1 [Example 579] | 0% | 97.6% | 97.0% | 243 to 247 °C |  |  |  |  |
| O=C(N/N=C/c1cc(Br)cc(Br)c1O)c1ccc2ccccc2c1 [Example 111] |  |  |  | 237 to 239 °C | 16.8% | 97.4% | 63.6% |  |
| C/C(=N\NC(=O)c1ccccc1O)c1cc(Br)ccc1O [Example 520] | 14.9% | 96.7% | 49.0% | 281 to 303 °C |  |  |  |  |
| C/C(=N\NC(=O)c1cccc(C)c1)c1cc(C)ccc1O [Example 313] | 8.5% | 98.5% | 28.0% | 182 to 184 °C |  |  |  |  |
| Cc1cccc(C(=O)N/N=C/c2cccc(C(F)(F)F)c2O)c1 [Example 343] | 2.8% | 95.4% | 97.0% | 188 to 190 °C |  |  |  |  |
| O=C(N/N=C/c1cc(C(F)(F)F)ccc1O)c1ccc(F)cc1 [Example 438] | 0% | 94.2% | 98.0% | 229 to 231 °C |  |  |  |  |
| C/C(=N\NC(=O)c1ccc(C)cc1)c1cc(Cl)ccc1O [Example 507] | 7.6% | 97.0% | 66.0% | 221 to 228 °C |  |  |  |  |
| CC(C)c1ccc(C(=O)N/N=C/c2cc(Cl)cc(Cl)c2O)cc1 [Example 42] |  |  |  | 270 to 272 °C |  | 93.2% | 60.0% | 9.2% |
| C/C(=N\NC(=O)c1ccccc1O)c1cccc(Cl)c1O [Example 503] | 5.2% | 97.0% | 66.0% | 283 to 287 °C |  |  |  |  |
| COc1ccc(/C(C)=N/NC(=O)c2cccc(C)c2)c(O)c1 [Example 282] |  |  |  | 184 to 185 °C | 0% | 94.7% | 52.0% |  |
| COc1ccc(C(=O)N/N=C(\C)c2cc(Cl)cc(Cl)c2O)c(O)c1 [Example 477] | 6.2% | 83.4% | 93.0% | 310 to 312 °C |  |  |  |  |
| Cc1ccc(C(=O)N/N=C/c2ccc(Cl)cc2O)cc1 [Example 388] | 17.2% | 98.1% | 61.0% | 258 to 260 °C |  |  |  |  |
